# Columns and labels:
# [1] = system: pain and inflammation of musculoskeletal system disorders; test: Pain associated with systemic inflammatory disorders (Example 15); type: in vivo, human
# Excerpt: subject two, presented chronic arthritis with painful involvement of the lower trunk. Over the years they had evaluated most new antiarthritic, analgesic drugs with disappointing results.
# [2] = system: coat; test: Coat quality of guinea pigs (Example 8); type: in vivo; details: 2 wt. % in water, 28 days
# Excerpt: Ten 4-week old guinea pigs were housed in individual metal cages in a standard temperature room with a 12-hour light/dark cycle and acclimated over a 5-day period of feeding Purina guinea pig chow with water ad lib.
# On day six, five animals were marked on the belly with red and the other five with blue water-insoluble ink. The marks were not visible when the animals were observed from above. Each animal after marking was returned to its cage and a corresponding red or blue tape affixed to the animal's watering bottle. The red marked bottles were maintained with tap water and the blue marked bottles were filled with tap water containing 2 wt. % methylsulfonylmethane. During a 28 day period, the animals were fed and allowed access to their water or water+2% methylsulfonylmethane, respectively, ad lib. On day 28, the animals were placed in common confinement on a well lighted table. Four individuals, totally unfamiliar with the test and its purpose were asked to evaluate the coat of each animal. Animals at each evaluation were removed by the evaluator and placed into one of two groups based on better or poorer quality of the animal's coat without seeing the color on the animal's belly.
# [3] = system: coat; test: Coat quality of dogs (Example 7); type: in vivo, dog (female labradors); details: 5% in drinking water, 45 days; three individuals
# Excerpt: The coats of animals A and B of Example 6 were examined by three individuals.
# [4] = system: sharp pain spasms in the lower abdominal region; test: Acute pain, comparison with codeine, subject one (Example 33); type: in vivo, human
# Procedure: Codeine and methylsulfonylmethane were compared for the relief of pain in subject one, a person who had sharp pain spasms in the lower abdominal region. Subject's appendix had been removed. Pain began after suffering an accidental traumatic blow to the abdomen during a volley ball game. Pyelogram examination indicated no obstruction. […] Codeine (2) plus 1/4 grain with aspirin every 4 hours, provided some relief. The codeine/aspirin was discontinued and 1 g methylsulfonylmethane in warm water was given. A half-hour later all discomfort ceased. A second gram of methylsulfonylmethane in water was given 4 hours later, after which the subject continued pain free.
# [5] = system: urinary taurine secretion; details: man; cited from earlier work
# [6] = system: arthritis; test: Canine arthritis and other sources of pain (Example 30); type: in vivo, dog
# Excerpt: In each case the methylsulfonylmethane was admixed with the animal's food just prior to feeding.
# This animal, although owned by a veterinarian, had not responded to a variety of therapeutic regimens over the previous 12 months. Methylsulfonylmethane was given to this dog in its food at a level of 1.5 grams b.i.d. X 1 month.
# It was mobile but walked with obvious difficulty and discomfort. The animals was refractory to both cortisone and phenylbutazone.
# The animal had not responded to either cortisone nor phenylbutazone and its condition was deteriorating rapidly. Methylsulfonylmethane was included in its diet at 1 gm/day b.i.d. After one week, the dog appeared to be pain-free.
# [7] = Tolerance of intravenous infusion; type: in vivo, human patients; details: for side effect at infusion rate as high as 2 gm/kg/hr: i.v., some patients
# Procedure: The amount of methylsulfonylmethane intravenously administered can vary substantially because of its lack of toxicity and adverse side effects. Individual doses can vary from about 0.01 to 2 gm/kg, preferably from about 0.1 to 1 gm/kg, on a body weight basis, the usual dosage range is about 0.25 to 0.75 gm/kg, preferably about 0.5 gm/kg.
# When large amounts are administered, e.g., in the order of 1 g/kg of body weight or more, i.e., infusion of 5% to 10% solution of methylsulfonylmethane in water, physiological saline or 5% dextrose is preferred. The rate of administration is preferably no greater than about 1 gm/kg/hr, although infusion rates as high as 2 gm/kg/hr are tolerated by patients, except for light-headedness of the type experienced by some blood donors is experienced by some patients at this rate.
# Such massive i.v. administrations can be repeated as frequently as every 24 hours.
# [8] = Naturally occurring body levels of methylsulfonylmethane; type: in vivo, animals
# Excerpt: The methylsulfonylmethane is usually provided in the aninmal's normal feed rations, periodically throughout the day or on successive days, or both, e.g., for 2 to 21 days or even longer. The daily food ration appropriate for the animal being fed is supplemented with an amount of methylsulfonylmethane calculated to correspond to a predetermined amount per total body weight of the animals being fed. The exact amount of methylsulfonylmethane ingested each day is not always critical, particularly when methylsulfonylmethane administration is over an extended period of days, because the ingested methylsulfonylmethane accumulates in the body tissues and fluids, i.e., reaches an effective titer. Methylsulfonylmethane-supplemented rations providing levels of as low as 0.5-1 mg/kg animal body weight are sometimes effective and levels as high as 300 mg/kg body weight or more are well tolerated. The usual target level per individual animal is about 0.2-2.0 mg/kg body weight preferably 0.5-1.0 mg per kg body weight. Total daily supplements corresponding to up to about 1 gm/kg body weight or more, are preferably employed, depending on the degree of deficiency. Healthy animals often have methylsulfonylmethane blood levels of at least 1 ppm, and desirably, enough methylsulfonylmethane is provided to raise blood levels to above 1 ppm. […]
# [9] = system: anticholinesterases; test: Antagonism of lethal effects of anticholinesterases; details: as stated in Example 19
# [10] = system: acute pain; test: Acute pain (Example 21); type: in vivo, human; details: single 1.5 gm dose; two 1 gm doses at 4-hour intervals, oral
compound,measurement,setting,value
CS(C)(=O)=O [methylsulfonylmethane],"relief of pain and inflammation, musculoskeletal system disorders","[1]; about 100 up to about 5,000 mg per day",substantial and long lasting relief
same,relief in migraine sufferers,[1]; oral 50-500 mg per day,substantial relief
same,pain after about 16 months,"[1]; subject two, 1/4-1/2 tsp. daily",substantially pain-free
same,pain relief by the end of the second week,"[1]; subject two, chronic arthritis, 1/2 tsp. daily",almost total pain relief
same,animals with blue belly mark selected as superior by fourth evaluator,[2],three
same,evaluators selecting the five treated animals as having superior coats,[2],Three of the four evaluators
same,coat quality (thickness and shiny appearance),[3],superior
same,time until all discomfort ceased,"[4]; 1 g in warm water, oral",A half-hour
same,pain after second gram,[4]; second gram 4 hours later,pain free
same,urinary taurine secretion produced by aromatic hydrocarbons,[5],enhances
same,"benefit, Dog A","[6]; Dog A, 0.5 g/day b.i.d., 7 days",without apparent benefit
same,"time to free mobility without evident discomfort nor ataxia, Dog A","[6]; Dog A, 1.5 g/day b.i.d.",≤ 10 days
same,"benefit, Dog B","[6]; Dog B, 1.5 grams b.i.d. X 1 month",no apparent benefit
same,"mobility over the first month, Dog C","[6]; Dog C, 0.5 grams b.i.d.",gradual improvement
same,"musculoskeletal restriction and discomfort in third month, Dog C","[6]; Dog C, 0.5 grams b.i.d.",neither musculoskelatal restriction nor discomfort
same,"pain after one week, Dog D","[6]; Dog D, 1 gm/day b.i.d.",pain-free
same,"state at over six months, Dog D","[6]; Dog D, 1 gm/day b.i.d.","apparently healthy and frisky, requiring no medication"
same,tolerated infusion rate,[7]; i.v. infusion,≤ 2 gm/kg/hr
same,side effect at infusion rate as high as 2 gm/kg/hr,[7],light-headedness
same,side effect at infusion rate as high as 2 gm/kg/hr,[7]; listed as dimethylsulfone,transient light-headedness
same,blood level in healthy animals,[8]; healthy animals often,at least 1 ppm
same,methylsulfonylmethane in the humoral fluid,[8]; with maturity,less than 0.5 ppm
same,antagonism of anticholinesterases in vivo,[9],antagonizes
same,relief of acute mid-back pain (calculi obstructed ureter) and lower abdomen pain spasms,[10],proven useful in relieving acute pain

# — patent US4863748A, “Dietary products and uses comprising methylsulfonylmethane” (priority 1986, dated 1989)
